Structures are written as SMILES. Where only a bound is given, the exact number is not on record here.

The values that follow come from US7517874B2 (priority 2007, dated 2009).

Assay [1] has as its target human CB1 receptor (hCB1) (Homo sapiens, UniProt P21554). As to the kind of experiment: cell-based. In kind it is cell-based. In outline: (§1)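 Agonism or inverse agonism was assessed as change in intracellular cAMP in CHO-K1 cells expressing human CB1 or rat CB2 (genomic DNA, pcDNA3.1).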
In the next assay the target is T1, rat CB2 receptor (rCB2) (Rattus norvegicus, UniProt Q9QZN9).
T1 sequence (Q9QZN9 1-360): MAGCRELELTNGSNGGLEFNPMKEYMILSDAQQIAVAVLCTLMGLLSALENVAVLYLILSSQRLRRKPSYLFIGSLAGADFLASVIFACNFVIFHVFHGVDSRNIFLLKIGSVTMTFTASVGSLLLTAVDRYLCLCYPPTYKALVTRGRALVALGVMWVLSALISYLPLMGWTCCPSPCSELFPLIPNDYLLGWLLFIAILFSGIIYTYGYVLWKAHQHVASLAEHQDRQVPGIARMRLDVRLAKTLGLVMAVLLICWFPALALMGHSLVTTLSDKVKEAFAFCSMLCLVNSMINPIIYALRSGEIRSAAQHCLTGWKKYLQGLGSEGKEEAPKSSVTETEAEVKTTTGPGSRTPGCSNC
As to the kind of experiment: cell-based. The format is cell-based. Particulars: for +/− RCB2: agonist or inverse agonist at rCB2. In outline:
as §1

human CB1 receptor (hCB1), sequence (P21554 whole entry): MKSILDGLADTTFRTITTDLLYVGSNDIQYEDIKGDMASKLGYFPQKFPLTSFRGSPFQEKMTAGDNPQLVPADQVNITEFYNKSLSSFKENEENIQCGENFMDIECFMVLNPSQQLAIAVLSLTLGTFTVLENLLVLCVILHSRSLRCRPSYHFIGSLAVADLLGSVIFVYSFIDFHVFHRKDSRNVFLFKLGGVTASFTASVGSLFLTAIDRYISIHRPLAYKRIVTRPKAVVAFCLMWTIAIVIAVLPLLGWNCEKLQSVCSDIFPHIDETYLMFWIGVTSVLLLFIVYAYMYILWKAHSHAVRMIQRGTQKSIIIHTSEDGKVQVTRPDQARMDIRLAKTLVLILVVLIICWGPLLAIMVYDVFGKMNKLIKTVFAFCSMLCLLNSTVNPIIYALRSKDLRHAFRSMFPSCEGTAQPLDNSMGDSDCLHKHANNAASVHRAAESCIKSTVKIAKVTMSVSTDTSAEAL

`CNC(=O)[C@@H](NC(=O)c1nc(-c2cc(F)cc(C(N)=O)c2)n2c1CN(C)CCC2)C(C)(C)C` [Compound 416, (S)-3-(3-carbamoyl-5-fluorophenyl)-N-(3,3-dimethyl-1-(methylamino)-1-oxobutan-2-yl)-8-methyl-6,7,8,9-tetrahydro-5H-imidazo[1,5-a][1,4]diazepine-1-carboxamide]: in assay [1], the EC50 (as a rule, the concentration at which the effect is half-maximal) is over 10 µM. The “+/− RCB2” value at rat CB2 receptor (rCB2) is reported as “+”.

With `CNC(=O)[C@@H](NC(=O)c1nc(-c2cccc3ccccc23)n2c1CN(C)CCC2)C(C)(C)C` [Compound 417, (S)-N-(3,3-dimethyl-1-(methylamino)-1-oxobutan-2-yl)-8-methyl-3-(naphthalen-1-yl)-6,7,8,9-tetrahydro-5H-imidazo[1,5-a][1,4]diazepine-1-carboxamide], the concentration giving a half-maximal response (EC50) in assay [1] was over 10 µM. For the same compound, at rat CB2 receptor (rCB2), the “+/− RCB2” value is recorded as “+”.

In turn, `CNC(=O)[C@@H](NC(=O)c1nc(-c2cc(OC)cc(C(F)(F)F)c2)n2c1CN(C)CCC2)C(C)(C)C` [Compound 418, (S)-N-(3,3-dimethyl-1-(methylamino)-1-oxobutan-2-yl)-3-(3-methoxy-5-(trifluoromethyl)phenyl)-8-methyl-6,7,8,9-tetrahydro-5H-imidazo[1,5-a][1,4]diazepine-1-carboxamide] returned an EC50 in assay [1] of over 10 µM. On rat CB2 receptor (rCB2), the “+/− RCB2” value is reported as “−”.

On to `CNC(=O)[C@@H](NC(=O)c1nc(-c2ccc(-c3ccccc3)c(F)c2)n2c1CN(C)CCC2)C(C)(C)C` [Compound 419, (S)-N-(3,3-dimethyl-1-(methylamino)-1-oxobutan-2-yl)-3-(2-fluorobiphenyl-4-yl)-8-methyl-6,7,8,9-tetrahydro-5H-imidazo[1,5-a][1,4]diazepine-1-carboxamide], for which the EC50 (in assay [1]; at rat CB2 receptor (rCB2)) was over 10 µM throughout.

With `CNC(=O)[C@@H](NC(=O)c1nc(-c2ccc(NS(C)(=O)=O)cc2)n2c1CN(C)CCC2)C(C)(C)C` [Compound 420, (S)-N-(3,3-dimethyl-1-(methylamino)-1-oxobutan-2-yl)-8-methyl-3-(4-(methylsulfonamido)phenyl)-6,7,8,9-tetrahydro-5H-imidazo[1,5-a][1,4]diazepine-1-carboxamide], the EC50 in assay [1] is over 10 µM. Besides, the “+/− RCB2” value on rat CB2 receptor (rCB2) is “−”.

In assay [1], `CNC(=O)[C@@H](NC(=O)c1nc(-c2cccc(NS(C)(=O)=O)c2)n2c1CN(C)CCC2)C(C)(C)C` [Compound 421, (S)-N-(3,3-dimethyl-1-(methylamino)-1-oxobutan-2-yl)-8-methyl-3-(3-(methylsulfonamido)phenyl)-6,7,8,9-tetrahydro-5H-imidazo[1,5-a][1,4]diazepine-1-carboxamide] had an EC50 of over 10 µM. Moreover, on rat CB2 receptor (rCB2), the “+/− RCB2” value is “−”.

As for `CNC(=O)[C@@H](NC(=O)c1nc(-c2cccc(C(N)=O)c2)n2c1CN(C)CCC2)C(C)(C)C` [Compound 422, (S)-3-(3-carbamoylphenyl)-N-(3,3-dimethyl-1-(methylamino)-1-oxobutan-2-yl)-8-methyl-6,7,8,9-tetrahydro-5H-imidazo[1,5-a][1,4]diazepine-1-carboxamide], the EC50 (in assay [1]; on rat CB2 receptor (rCB2)) was over 10 µM each time.

Take `CNC(=O)[C@@H](NC(=O)c1nc(-c2ccc(C(N)=O)cc2)n2c1CN(C)CCC2)C(C)(C)C` [Compound 423, (S)-3-(4-carbamoylphenyl)-N-(3,3-dimethyl-1-(methylamino)-1-oxobutan-2-yl)-8-methyl-6,7,8,9-tetrahydro-5H-imidazo[1,5-a][1,4]diazepine-1-carboxamide]: the EC50 (in assay [1]; at rat CB2 receptor (rCB2)) was over 10 µM throughout.

In assay [1], `CNC(=O)[C@@H](NC(=O)c1nc(-c2cc(F)c(OC)cc2F)n2c1CN(C)CCC2)C(C)(C)C` [Compound 424, (S)-3-(2,5-difluoro-4-methoxyphenyl)-N-(3,3-dimethyl-1-(methylamino)-1-oxobutan-2-yl)-8-methyl-6,7,8,9-tetrahydro-5H-imidazo[1,5-a][1,4]diazepine-1-carboxamide] had an EC50 of over 10 µM. At rat CB2 receptor (rCB2), the “+/− RCB2” value is “+”.

For `CNC(=O)[C@@H](NC(=O)c1nc(-c2ccc(F)c(C#N)c2)n2c1CN(C)CCC2)C(C)(C)C` [Compound 425, (S)-3-(3-cyano-4-fluorophenyl)-N-(3,3-dimethyl-1-(methylamino)-1-oxobutan-2-yl)-8-methyl-6,7,8,9-tetrahydro-5H-imidazo[1,5-a][1,4]diazepine-1-carboxamide], the EC50 in assay [1] is over 10 µM. The “+/− RCB2” value at rat CB2 receptor (rCB2) is on record as “+”.

Take `CNC(=O)[C@@H](NC(=O)c1nc(-c2ccc(C(=O)N(C)C)c(F)c2)n2c1CN(C)CCC2)C(C)(C)C` [Compound 426, (S)-N-(3,3-dimethyl-1-(methylamino)-1-oxobutan-2-yl)-3-(4-(dimethylcarbamoyl)-3-fluorophenyl)-8-methyl-6,7,8,9-tetrahydro-5H-imidazo[1,5-a][1,4]diazepine-1-carboxamide]: the EC50 (in assay [1]; on rat CB2 receptor (rCB2)) was over 10 µM each time.

For `CNC(=O)[C@@H](NC(=O)c1nc(-c2ccc(C(N)=O)c(F)c2)n2c1CN(C)CCC2)C(C)(C)C` [Compound 427, (S)-3-(4-carbamoyl-3-fluorophenyl)-N-(3,3-dimethyl-1-(methylamino)-1-oxobutan-2-yl)-8-methyl-6,7,8,9-tetrahydro-5H-imidazo[1,5-a][1,4]diazepine-1-carboxamide], the EC50 (in assay [1]; on rat CB2 receptor (rCB2)) was over 10 µM throughout.

In the case of `CNC(=O)[C@@H](NC(=O)c1nc(-c2ccc(C3CC(=O)NN3)cc2)n2c1CN(C)CCC2)C(C)(C)C` (stereo partly drawn) [Compound 428, N-((S)-3,3-dimethyl-1-(methylamino)-1-oxobutan-2-yl)-8-methyl-3-(4-(5-oxopyrazolidin-3-yl)phenyl)-6,7,8,9-tetrahydro-5H-imidazo[1,5-a][1,4]diazepine-1-carboxamide], the 50% effective concentration (EC50) (in assay [1]; on rat CB2 receptor (rCB2)) was over 10 µM each time.

The compound `CNC(=O)[C@@H](NC(=O)c1nc(-c2ccc(F)c(C(N)=O)c2)n2c1CN(C)CCC2)C(C)(C)C` [Compound 429, (S)-3-(3-carbamoyl-4-fluorophenyl)-N-(3,3-dimethyl-1-(methylamino)-1-oxobutan-2-yl)-8-methyl-6,7,8,9-tetrahydro-5H-imidazo[1,5-a][1,4]diazepine-1-carboxamide] registered an EC50 in assay [1] of over 10 µM. At rat CB2 receptor (rCB2), the “+/− RCB2” value was “+”.

In assay [1], `C=Cc1nc(C(=O)N[C@H](C(=O)NC)C(C)(C)C)c2n1CCCN(C)C2` [Compound 430, (S)-N-(3,3-dimethyl-1-(methylamino)-1-oxobutan-2-yl)-8-methyl-3-vinyl-6,7,8,9-tetrahydro-5H-imidazo[1,5-a][1,4]diazepine-1-carboxamide] had an EC50 of over 10 µM. Also, the “+/− RCB2” value on rat CB2 receptor (rCB2) was “+”.

On to `CNC(=O)[C@@H](NC(=O)c1nc(-c2ccccc2C(N)=O)n2c1CN(C)CCC2)C(C)(C)C` [Compound 431, (S)-3-(2-carbamoylphenyl)-N-(3,3-dimethyl-1-(methylamino)-1-oxobutan-2-yl)-8-methyl-6,7,8,9-tetrahydro-5H-imidazo[1,5-a][1,4]diazepine-1-carboxamide], for which the EC50 (in assay [1]; on rat CB2 receptor (rCB2)) was over 10 µM in each case.

For the compound `CNC(=O)[C@@H](NC(=O)c1nc(-c2cn[nH]c2)n2c1CN(C)CCC2)C(C)(C)C` [Compound 432, (S)-N-(3,3-dimethyl-1-(methylamino)-1-oxobutan-2-yl)-8-methyl-3-(1H-pyrazol-4-yl)-6,7,8,9-tetrahydro-5H-imidazo[1,5-a][1,4]diazepine-1-carboxamide], the concentration for a half-maximal effect (EC50) in assay [1] was over 10 µM. Besides, the “+/− RCB2” value on rat CB2 receptor (rCB2) was “+”.

With `CNC(=O)[C@@H](NC(=O)c1nc(-c2cccc(Cl)c2)n2c1CN(C)CCC2)C(C)(C)C` [Compound 433, (S)-3-(3-chlorophenyl)-N-(3,3-dimethyl-1-(methylamino)-1-oxobutan-2-yl)-8-methyl-6,7,8,9-tetrahydro-5H-imidazo[1,5-a][1,4]diazepine-1-carboxamide], the EC50 (in assay [1]; at rat CB2 receptor (rCB2)) was over 10 µM each time.

As to `CCC/C=C/c1nc(C(=O)N[C@H](C(=O)NC)C(C)(C)C)c2n1CCCN(C)C2` [Compound 434, (S,E)-N-(3,3-dimethyl-1-(methylamino)-1-oxobutan-2-yl)-8-methyl-3-(pent-1-enyl)-6,7,8,9-tetrahydro-5H-imidazo[1,5-a][1,4]diazepine-1-carboxamide], the EC50 in assay [1] was over 10 µM. For the same compound, at rat CB2 receptor (rCB2), the “+/− RCB2” value was “+”.

For `CNC(=O)[C@@H](NC(=O)c1nc(C2CC2)n2c1CN(C)CCC2)C(C)(C)C` [Compound 435, (S)-3-cyclopropyl-N-(3,3-dimethyl-1-(methylamino)-1-oxobutan-2-yl)-8-methyl-6,7,8,9-tetrahydro-5H-imidazo[1,5-a][1,4]diazepine-1-carboxamide], the 50% effective concentration (EC50) in assay [1] was over 10 µM. Besides, the “+/− RCB2” value on rat CB2 receptor (rCB2) was “+”.

Take `CNC(=O)[C@@H](NC(=O)c1nc(/C=C/C2CC2)n2c1CN(C)CCC2)C(C)(C)C` [Compound 436, (S,E)-3-(2-cyclopropylvinyl)-N-(3,3-dimethyl-1-(methylamino)-1-oxobutan-2-yl)-8-methyl-6,7,8,9-tetrahydro-5H-imidazo[1,5-a][1,4]diazepine-1-carboxamide]: the “+/− HCB1” value in assay [1] (agonist or inverse agonist at hCB1) is “+”. Also, the “+/− RCB2” value at rat CB2 receptor (rCB2) was “+”.

On to `CNC(=O)[C@@H](NC(=O)c1nc(-c2ccc(F)cc2)n2c1CN(C)CCC2)C(C)(C)C` [Compound 437, (S)-N-(3,3-dimethyl-1-(methylamino)-1-oxobutan-2-yl)-3-(4-fluorophenyl)-8-methyl-6,7,8,9-tetrahydro-5H-imidazo[1,5-a][1,4]diazepine-1-carboxamide], for which the half-maximal effective concentration (EC50) (in assay [1]; on rat CB2 receptor (rCB2)) was over 10 µM throughout.
